Experimental data published in patent publication US12552825B2 (Zikani Therapeutics, Inc., priority 2019, dated 2026).
Converted amounts (≈) assume the structure as drawn.

How the values were obtained:
Type in all cases: cell-based
S. aureus MP-12 = experiment: microbe, parasite or virus in culture; settings: Staphylococcus aureus, MP12, read-out: MIC S. aureus MP-12
E. coli MP-4 = experiment: MIC determination by CLSI broth dilution, E. coli MP-4; settings: strain MP-4; for MIC: Escherichia coli, MP4, CLSI broth dilution; for MIC E. coli MP-4: CLSI broth dilution
K. pneumoniae MP-546 = experiment: MIC determination by CLSI broth dilution, K. pneumoniae MP-546; settings: strain MP-546; for MIC: Klebsiella pneumoniae, MP546, CLSI broth dilution; for MIC K. pneumoniae MP-546: CLSI broth dilution
K. pneumoniae MP-648 = experiment: MIC determination by CLSI broth dilution, K. pneumoniae MP-648; settings: strain MP-648; for MIC: Klebsiella pneumoniae, MP648, CLSI broth dilution; for MIC K. pneumoniae MP-648: CLSI broth dilution
P. aeruginosa MP-3 = experiment: MIC determination by CLSI broth dilution, P. aeruginosa MP-3; settings: for MIC: Pseudomonas aeruginosa, MP3, strain MP-3; for MIC P aeruginosa MP-3: strain MP-3
A. baumannii MP-15 = experiment: MIC determination by CLSI broth dilution, A. baumannii MP-15; settings: for MIC: Acinetobacter baumannii, MP15, strain MP-15, read-out: MIC A. baumanii MP-15; for MIC A. baumanii MP-15: strain MP-15

SMILES	MIC (S. aureus MP-12) [µg/mL]	MIC (E. coli MP-4) [µg/mL]	MIC (K. pneumoniae MP-546) [µg/mL]	MIC (K. pneumoniae MP-648) [µg/mL]	MIC (P. aeruginosa MP-3) [µg/mL]	MIC (A. baumannii MP-15) [µg/mL]	MIC E. coli MP-4 (E. coli MP-4)	MIC K. pneumoniae MP-546 (K. pneumoniae MP-546)	MIC K. pneumoniae MP-648 (K. pneumoniae MP-648)	MIC P aeruginosa MP-3 (P. aeruginosa MP-3)	MIC A. baumanii MP-15 (A. baumannii MP-15)
CCCN1CC(C[C@@H]2COC(=O)C(C)(C)C(=O)[C@H](C)[C@@H](O[C@@H]3O[C@H](C)C[C@H](N(C)C)[C@H]3O)[C@](C)(OC)C[C@@H](C)CN2C)C1 [Compound 1]	> 32	< 4	4 to 32 (≈ 6.54 to 52.3 µM)	> 32	> 32	> 32					
C=C(C[C@@H]1COC(=O)C(C)(C)C(=O)[C@H](C)[C@@H](O[C@@H]2O[C@H](C)C[C@H](N(C)C)[C@H]2O)[C@](C)(OC)C[C@@H](C)CN1C)CN(CCC)CCC [Compound 2]	> 32	4 to 32 (≈ 6.12 to 48.9 µM)	> 32	> 32	> 32	> 32					
CCN(C)CC[C@@H](O)[C@@H]1COC(=O)C(C)(C)C(=O)[C@H](C)[C@@H](O[C@@H]2O[C@H](C)C[C@H](N(C)C)[C@H]2O)[C@](C)(OC)C[C@@H](C)CN1C [Compound 3]	4 to 32 (≈ 6.5 to 52 µM)	< 4	< 4	< 4	> 32	> 32					
CO[C@]1(C)C[C@@H](C)CN(C)[C@@H](CCCO)COC(=O)C(C)(C)C(=O)[C@H](C)[C@H]1O[C@@H]1O[C@H](C)C[C@H](N(C)C)[C@H]1O [Compound 4, (3S,6R,8R,9R,10R)-9-(((2S,3R,4S,6R)-4-(dimethylamino)-3-hydroxy-6-methyltetrahydro-2H-pyran-2-yl)oxy)-3-(3-hydroxypropyl)-8-methoxy-4,6,8,10,12,12-hexamethyl-1-oxa-4-azacyclotridecane-11,13-dione]	> 32	< 4	4 to 32 (≈ 7.16 to 57.3 µM)	4 to 32 (≈ 7.16 to 57.3 µM)	> 32	> 32					
CO[C@]1(C)C[C@@H](C)CN(C)[C@@H](CCCN(C)C(C)(C)C)COC(=O)C(C)(C)C(=O)[C@H](C)[C@H]1O[C@@H]1O[C@H](C)C[C@H](N(C)C)[C@H]1O [Compound 7, (3S,6R,8R,9R,10R)-3-(3-(tert-butyl(methyl)amino)propyl)-9-(((2S,3R,4S,6R)-4-(dimethylamino)-3-hydroxy-6-methyltetrahydro-2H-pyran-2-yl)oxy)-8-methoxy-4,6,8,10,12,12-hexamethyl-1-oxa-4-azacyclotridecane-11,13-dione]	4 to 32 (≈ 6.37 to 51 µM)	< 4	4 to 32 (≈ 6.37 to 51 µM)	< 4	> 32	> 32					
CO[C@]1(C)C[C@@H](C)CN(CC(C)C)[C@@H](CCCN(C)C(C)C)COC(=O)C(C)(C)C(=O)[C@H](C)[C@H]1O[C@@H]1O[C@H](C)C[C@H](N(C)C)[C@H]1O [Compound 8, (3S,6R,8R,9R,10R)-9-(((2S,3R,4S,6R)-4-(dimethylamino)-3-hydroxy-6-methyltetrahydro-2H-pyran-2-yl)oxy)-4-isobutyl-3-(3-(isopropyl(methyl)amino)propyl)-8-methoxy-6,8,10,12,12-pentamethyl-1-oxa-4-azacyclotridecane-11,13-dione]	< 4	< 4	4 to 32 (≈ 6.1 to 48.8 µM)	4 to 32 (≈ 6.1 to 48.8 µM)	> 32	> 32					
CCN1C[C@H](C)C[C@@](C)(OC)[C@H](O[C@@H]2O[C@H](C)C[C@H](N(C)C)[C@H]2O)[C@@H](C)C(=O)C(C)(C)C(=O)OC[C@@H]1CCCN(C)C(C)C [Compound 10, (3S,6R,8R,9R,10R)-9-(((2S,3R,4S,6R)-4-(dimethylamino)-3-hydroxy-6-methyltetrahydro-2H-pyran-2-yl)oxy)-4-ethyl-3-(3-(isopropyl(methyl)amino)propyl)-8-methoxy-6,8,10,12,12-pentamethyl-1-oxa-4-azacyclotridecane-11,13-dione]	< 4	< 4	< 4	< 4	> 32	> 32					
CO[C@]1(C)C[C@@H](C)CN(C)[C@H](CCCN(C)C(C)C)COC(=O)C(C)(C)C(=O)[C@H](C)[C@H]1O[C@@H]1O[C@H](C)C[C@H](N(C)C)[C@H]1O [Compound 12, (3R,6R,8R,9R,10R)-9-(((2S,3R,4S,6R)-4-(dimethylamino)-3-hydroxy-6-methyltetrahydro-2H-pyran-2-yl)oxy)-3-(3-(isopropyl(methyl)amino)propyl)-8-methoxy-4,6,8,10,12,12-hexamethyl-1-oxa-4-azacyclotridecane-11,13-dione]	4 to 32 (≈ 6.52 to 52.1 µM)	< 4	< 4	< 4	> 32	> 32					
CO[C@]1(C)C[C@@H](C)CN(C)[C@H]([C@@H](O)C2CCN(CC3CC3)CC2)COC(=O)C(C)(C)C(=O)[C@H](C)[C@H]1O[C@@H]1O[C@H](C)C[C@H](N(C)C)[C@H]1O [Compound 28]							+ (values greater than 32 mg/L)	+ (values greater than 32 mg/L)	+ (values greater than 32 mg/L)	+ (values greater than 32 mg/L)	+ (values greater than 32 mg/L)
CO[C@]1(C)C[C@@H](C)CN(C)[C@H](C[C@H]2C[C@H](N(C)CC(C)C)C2)COC(=O)C(C)(C)C(=O)[C@H](C)[C@H]1O[C@@H]1O[C@H](C)C[C@H](N(C)C)[C@H]1O [Compound 134, (3R,6R,8R,9R,10R)-9-(((2S,3R,4S,6R)-4-(dimethylamino)-3-hydroxy-6-methyltetrahydro-2H-pyran-2-yl)oxy)-3-(((1r,3S)-3-(isobutyl(methyl)amino)cyclobutyl)methyl)-8-methoxy-4,6,8,10,12,12-hexamethyl-1-oxa-4-azacyclotridecane-11,13-dione]							+++ (values less than or equal to 4 mg/L)	+++ (values less than or equal to 4 mg/L)	+++ (values less than or equal to 4 mg/L)	+ (values greater than 32 mg/L)	+ (values greater than 32 mg/L)
C=C(C)C[C@]1(C)C(=O)OC[C@@H](CC2CCN(CCCCCCC)CC2)N(C)C[C@H](C)C[C@@](C)(OC)[C@H](O[C@@H]2O[C@H](C)C[C@H](N(C)C)[C@H]2O)[C@@H](C)C1=O [Compound 175]							+++ (values less than or equal to 4 mg/L)	++ (values of greater than 4 mg/L and less than or equal to 32 mg/L)	+ (values greater than 32 mg/L)	+ (values greater than 32 mg/L)	+ (values greater than 32 mg/L)
CCN1C[C@H](C)C[C@@](C)(OC)[C@H](O[C@@H]2O[C@H](C)C[C@H](N(C)C)[C@H]2O)[C@@H](C)C(=O)C(C)(C)C(=O)OC[C@H]1[C@H](O)CCO [Compound 200, (3S,6R,8R,9R,10R)-3-((R)-1,3-dihydroxypropyl)-9-(((2S,3R,4S,6R)-4-(dimethylamino)-3-hydroxy-6-methyltetrahydro-2H-pyran-2-yl)oxy)-4-ethyl-8-methoxy-6,8,10,12,12-pentamethyl-1-oxa-4-azacyclotridecane-11,13-dione]	> 32	4 to 32 (≈ 6.79 to 54.3 µM)		> 32	> 32	> 32					
CO[C@]1(C)C[C@@H](C)CN(C)[C@H]([C@H](O)[C@@H](O)CO)COC(=O)C(C)(C)C(=O)[C@H](C)[C@H]1O[C@@H]1O[C@H](C)C[C@H](N(C)C)[C@H]1O [Compound 201]	> 32	4 to 32 (≈ 6.77 to 54.2 µM)		> 32	> 32	> 32					
CCCN(CCC)CC[C@@H](O)[C@@H]1COC(=O)C(C)(C)C(=O)[C@H](C)[C@@H](O[C@@H]2O[C@H](C)C[C@H](N(C)C)[C@H]2O)[C@](C)(OC)C[C@@H](C)CN1CC [Compound 223]	4 to 32 (≈ 5.95 to 47.6 µM)	< 4		4 to 32 (≈ 5.95 to 47.6 µM)	> 32	> 32					
CCN1C[C@H](C)C[C@@](C)(OC)[C@H](O[C@@H]2O[C@H](C)C[C@H](N(C)C)[C@H]2O)[C@@H](C)C(=O)C(C)(C)C(=O)OC[C@H]1[C@H](O)CCN(C)C(C)C [Compound 224]	4 to 32 (≈ 6.21 to 49.7 µM)	< 4		4 to 32 (≈ 6.21 to 49.7 µM)	> 32	> 32					
CCN1C[C@H](C)C[C@@](C)(OC)[C@H](O[C@@H]2O[C@H](C)C[C@H](N(C)C)[C@H]2O)[C@@H](C)C(=O)C(C)(C)C(=O)OC[C@H]1[C@H](O)CCN(C)CCO [Compound 225]	4 to 32 (≈ 6.19 to 49.5 µM)	< 4		4 to 32 (≈ 6.19 to 49.5 µM)	> 32	> 32					
CCN1C[C@H](C)C[C@@](C)(OC)[C@H](O[C@@H]2O[C@H](C)C[C@H](N(C)C)[C@H]2O)[C@@H](C)C(=O)C(C)(C)C(=O)OC[C@H]1[C@H](O)CCN(C1CC1)C1Cc2ccccc2C1 [Compound 226]	4 to 32 (≈ 5.38 to 43 µM)	< 4		4 to 32 (≈ 5.38 to 43 µM)	> 32	> 32					
CO[C@]1(C)C[C@@H](C)CN(C)[C@H]([C@](C)(O)CCN2CCCC2)COC(=O)C(C)(C)C(=O)[C@H](C)[C@H]1O[C@@H]1O[C@H](C)C[C@H](N(C)C)[C@H]1O [Compound 227]	4 to 32 (≈ 6.23 to 49.9 µM)	4 to 32 (≈ 6.23 to 49.9 µM)		> 32	> 32	> 32					
CO[C@]1(C)C[C@@H](C)CN(C)[C@H]([C@](C)(O)CCN(C)CCO)COC(=O)C(C)(C)C(=O)[C@H](C)[C@H]1O[C@@H]1O[C@H](C)C[C@H](N(C)C)[C@H]1O [Compound 228]	> 32	4 to 32 (≈ 6.19 to 49.5 µM)		< 4	> 32	> 32					
CCCN(CCC)CC[C@@](C)(O)[C@@H]1COC(=O)C(C)(C)C(=O)[C@H](C)[C@@H](O[C@@H]2O[C@H](C)C[C@H](N(C)C)[C@H]2O)[C@](C)(OC)C[C@@H](C)CN1C [Compound 229]	4 to 32 (≈ 5.95 to 47.6 µM)	4 to 32 (≈ 5.95 to 47.6 µM)		> 32	> 32	> 32					
